Assay results published in patent US8436004B2, “Bicycloaniline derivative” (MSD K.K., priority 2007, dated 2013).
Structures can show the parent of a compound that is named as a salt.

Assays:
[1] = test system: Cdc2 (Cdk1) tyrosine 15-phosphorylation in NCI-H1299 cells; assay: Cdc2 (Cdk1) tyrosine 15-phosphorylation-inhibitory effect in camptothecin-treated NCI-H1299 cells (ELISA); format: cell-based; details: Homo sapiens; NCI-H1299, camptothecin 200 nM 16 hours, then test compound + nocodazole 8 hours; read-out: Cdc2-Y15 Phosphorylation-Inhibitory Effect (H1299, + camptothecin) (EC50)
Source text: Pharmacological Test 2 (Method of Determining Drug Potency with Cells (Cdc2 (Cdk1) Tyrosine 15-Phosphorylation-Inhibitory Effect))
Fetal bovine serum (FBS) was obtained from Morgate; media RPMI1640 and DMEM were from Invitrogen; camptothecin was from Sigma; gemcitabine was from Nippon Eli Lilly; nocodazole and protease inhibitor cocktail were from Sigma; rabbit anti-Cdc2 antibody and mouse anti-Cdc2 antibody were from Santa Cruz Biotechnology; rabbit anti-tyrosine 15-phosphorylated Cdc2 antibody and horseradish peroxidase-labeled anti-mouse IgG antibody were from Cell Signaling Technology; sure blue reserve TMB peroxidase substrate was from Kirkegaard and Perry Laboratories.
Human non-small cell lung cancer cells (NCI-H1299) and human colon cancer cells (WiDr) were obtained from American Type Culture Collection (ATCC).
In the method of using NCI-H1299 cells, the cells were suspended in a medium of 10% FBS-added RPMI1640, and the cell suspension was applied to a 96-well Nunclondelta-processed plastic plate (bought from Nunc), in an amount of 2000 cells/100 μL/well, in which the cells were incubated overnight in 5% CO2-95% air at 37° C. Camptothecin was dissolved in dimethylsulfoxide (DMSO), and diluted with a medium of 10% FBS-added RPMI1640, and then this was applied to the plate on which the cells had been previously sowed, in an amount of 50 μL/well in such a manner that the final concentration of camptothecin could be 200 nM. Then, the cells were incubated for 16 hours at 37° C. in 5% CO2-95% air. The test compound was stepwise diluted with DMSO, then diluted with 4000 nM nocodazole-containing, 10% FBS-added RPMI1640, and applied to the plate on which the camptothecin-treated cells had been sowed, in an amount of 50 μL/well. The cells were incubated for 8 hours at 37° C. in 5% CO2-95% air, then the culture was removed, and a cytolytic buffer was added to the plate in an amount of 100 μL/well, shaken at 4° C. for 2 hours, then frozen at −80° C., and thawed to give a cell solution. Cdc2 and tyrosine 15-phosphorylated Cdc2 in the cell solution were determined through enzyme-linked immunosorbent assay (ELISA), and the ratio of tyrosine 15-phosphorylated Cdc2 to Cdc2 was calculated to obtain the 50% phosphorylation-inhibitory concentration of the test compound to the cells (EC50, nM). The cytolytic buffer used herein is an aqueous solution containing 20 mM Hepes (pH 7.5), 150 mM sodium chloride, 1 mM disodium ethylenediaminetetraacetate, 0.1% polyoxyethylene (10) octylphenyl ether, 1% protease inhibitor cocktail, 1 mM dithiothreitol, 2 mM sodium orthovanadate, 10 mM sodium fluoride and 10 mM glycerol diphosphate. Cdc2 was determined through ELISA as follows: A rabbit anti-Cdc2 antibody solution, which had been diluted 200-fold with 50 mM carbonate-bicarbonate buffer (pH 9.6), was applied to a 96-well maxisorpimmuno plate (bought from Nunc), in an amount of 50 μL/well, and statically kept overnight at 4° C. so as to fix the antibody on the plate. Next, this was washed three times with phosphate-buffered physiological saline (PBS), and 5% bovine serum albumin-containing PBS (5% BSA/PBS) was added thereto in an amount of 300 μL/well, and statically kept at room temperature for 2 hours, and then again washed three times with PBS. A mouse anti-Cdc2 antibody solution that had been diluted 100-fold with 0.05% polyoxyethylene sorbitan monolaurate and 1% BSA-containing Tris-HCl-buffered physiological saline (1% BSA/TBS-T) was added to it in an amount of 50 μL/well, and the cell solution was added thereto in an amount of 5 μL/well and statically kept overnight at 4° C. Next, this was washed three times with 0.05% polyoxyethylene sorbitan monolaurate and 0.1% BSA-containing Tris-HCl-buffered physiological saline (0.1% BSA/TBS-T), and then a horseradish peroxidase-labeled anti-mouse IgG antibody solution that had been diluted 2000-fold with 1% BSA/TBS-T was added thereto in an amount of 70 μL/well, and statically kept at room temperature for 3 hours. […]

[2] = test system: Human colon cancer cells (WiDr); assay: Checkpoint-escape effect in gemcitabine-treated WiDr cells (phosphorylated histone H3-positive cells); format: cell-based; details: gemcitabine 100 nM 24 hours, then test compound + nocodazole 8 hours
Source text: Pharmacological Test 3 (Method of Determining Drug Potency with Cells (Checkpoint-Escape Effect))
Fetal bovine serum (FBS) was obtained from Morgate; a medium of DMEM was from Invitrogen; gemcitabine was from Nippon Eli Lilly; nocodazole and 4′,6-diamidino-2-phenylindole were from Sigma; rabbit anti-phosphorylated histone H3 antibody was from Upstate; and fluorescence-labeled (Alexa Fluor 488) anti-rabbit IgG antibody was from Molecular Probe.
Human colon cancer cells (WiDr) were obtained from American Type Culture Collection (ATCC).
The cells were suspended in a medium of 10% FBS-added DMEM, and the cell suspension was applied to a poly-D-lysine-coated 96-well plastic plate (bought from Becton Dickinson) in an amount of 2000 cells/100 μL/well, in which the cells were incubated overnight in 5% CO2-95% air at 37° C. […] Next, this was washed with PBS, and a solution containing 4′,6-diamidino-2-phenylindole that had been diluted with 1% BSA/PBS to have a concentration 10 μg/mL and a fluorescence-labeled (Alexa Fluor 488) anti-rabbit IgG antibody that had been diluted 250-fold was added to it in an amount 50 μL/well, and reacted in a dark place at room temperature for 60 minutes. […]

Row | EC50 [1] [nM] | EC50 [2] [nM] | Compound
1 | 19 | 37 | CN1Cc2cc(Nc3ncc4c(=N)n(-c5c(Cl)cccc5Cl)c(=O)[nH]c4n3)ccc2C2(CC2)C1 [Example 1, 3-(2,6-dichlorophenyl)-4-imino-7-[(2′-methyl-2′,3′-dihydro-1′H-spiro[cyclopropane-1,4′-isoquinolin]-7′-yl)amino]-3,4-dihydropyrimido[4,5-d]pyrimidin-2(1H)-one dihydrochloride]
2 | 17 | – | CN1Cc2cc(Nc3ncc4c(=N)n(-c5c(Cl)cccc5Cl)c(=O)[nH]c4n3)ccc2C1(C)C [Example 7, 3-(2,6-dichlorophenyl)-4-imino-7-[(1,1,2-trimethyl-2,3-dihydro-1H-isoindol-5-yl)amino]-3,4-dihydropyrimido[4,5-d]pyrimidin-2(1H)-one]
3 | 27 | – | CN1Cc2cc(Nc3ncc4c(=N)n(-c5c(Cl)cccc5Cl)c(=O)[nH]c4n3)ccc2C(C)(C)C1 [Example 2, 3-(2,6-dichlorophenyl)-4-imino-7-{[2,4,4-trimethyl-1,2,3,4-tetrahydroisoquinolin-7-yl]amino}-3,4-dihydropyrimido[4,5-d]pyrimidin-2(1H)-one]
